Data from ChEMBL document CHEMBL6071176, “Development of Phloroglucinol-Linked Tris-Quaternary Ammonium Salt Antimicrobial Peptide Mimics with Low Cytotoxicity and Broad-Spectrum Antibacterial Activity” (J Med Chem, 2024).
≈ marks a conversion by molar mass, not a printed value.

Columns and labels:
Staphylococcus aureus = assay: Antimicrobial activity against Staphylococcus aureus assessed as inhibition of growth incubated for 18 hrs by CLSI guidelines based assay; assay type: functional
Enterococcus faecalis = assay: Antimicrobial activity against Enterococcus faecalis assessed as inhibition of growth incubated for 18 hrs by CLSI guidelines based assay; assay type: functional
Escherichia coli = assay: Antimicrobial activity against Escherichia coli assessed as inhibition of growth incubated for 18 hrs by CLSI guidelines based assay; assay type: functional
[1] = system: Stenotrophomonas maltophilia; assay: Antimicrobial activity against Stenotrophomonas maltophilia assessed as inhibition of growth incubated for 18 hrs by CLSI guidelines based assay; assay type: functional
[2] = Hemolytic activity in sheep red blood cells measured after 1 hr incubation; assay type: toxicity, cell-based, Ovis aries, Erythrocyte
[3] = Selectivity index, ratio of HC50 for sheep red blood cells to MIC for Staphylococcus aureus; assay type: toxicity, cell-based, RBC; conditions: read-out: Selectivity Index
[4] = Cytotoxicity against human Gastric mucosal cells measured after 24 hrs by CCK-8 assay; assay type: toxicity, cell-based, Gastric mucosal cell

Row | MIC (Staphylococcus aureus) | MIC (Enterococcus faecalis) | MIC (Escherichia coli) | MIC [1] | Compound | HC50 at 1 h [2] | selectivity ratio [3] | CC50 at 24 h [4]
1 | 0.5 µg/mL | 0.5 µg/mL | 2 µg/mL | 1 µg/mL | CCCCCCCC[N+](C)(C)CCCCOc1ccc(OCCCC[N+](C)(C)CCCCCCCC)c(OCCCC[N+](C)(C)CCCCCCCC)c1.[Br-].[Br-].[Br-] | > 1280 µg/mL | > 2560 | 
2 | 8 µg/mL | 4 µg/mL | 32 µg/mL | 32 µg/mL | CCCCCCCCCCCC[N+](C)(C)CCCOc1cc(OCCC[N+](C)(C)CCCCCCCCCCCC)cc(OCCC[N+](C)(C)CCCCCCCCCCCC)c1.[Br-].[Br-].[Br-] | 10 µg/mL | 1.25 | 
3 | 1 µg/mL | 2 µg/mL | 8 µg/mL | 4 µg/mL | CCCCCC[N+](C)(C)CCCCCOc1cc(OCCCCC[N+](C)(C)CCCCCC)cc(OCCCCC[N+](C)(C)CCCCCC)c1.[Br-].[Br-].[Br-] | > 1280 µg/mL | > 1280 | < 30 µg/mL
4 | 4 µg/mL | 0.5 µg/mL | 4 µg/mL | 4 µg/mL | CCCCCCCCCC[N+](C)(C)CCCCOc1cc(OCCCC[N+](C)(C)CCCCCCCCCC)cc(OCCCC[N+](C)(C)CCCCCCCCCC)c1.[Br-].[Br-].[Br-] | 34 µg/mL | 8.5 | 
5 | 32 µg/mL | 8 µg/mL | 128 µg/mL | 128 µg/mL | CCCCCC[N+](C)(C)CCCCOc1cc(OCCCC[N+](C)(C)CCCCCC)cc(OCCCC[N+](C)(C)CCCCCC)c1.[Br-].[Br-].[Br-] | > 1280 µg/mL | > 40 | 
6 | 1 µg/mL | 1 µg/mL | 4 µg/mL | 4 µg/mL | CCCCCCCCCC[N+](C)(C)CCCOc1cc(OCCC[N+](C)(C)CCCCCCCCCC)cc(OCCC[N+](C)(C)CCCCCCCCCC)c1.[Br-].[Br-].[Br-] | 54 µg/mL | 54 | 
7 | 4 µg/mL | 2 µg/mL | 4 µg/mL | 4 µg/mL | CCCCCCCCCC[N+](C)(C)CCCCCOc1cc(OCCCCC[N+](C)(C)CCCCCCCCCC)cc(OCCCCC[N+](C)(C)CCCCCCCCCC)c1.[Br-].[Br-].[Br-] | 16 µg/mL | 4 | 
8 | 0.5 µg/mL | 2 µg/mL | 4 µg/mL | 2 µg/mL | CCCCCCCC[N+](C)(C)CCCCCOc1cc(OCCCCC[N+](C)(C)CCCCCCCC)cc(OCCCCC[N+](C)(C)CCCCCCCC)c1.[Br-].[Br-].[Br-] | 711 µg/mL | 1420 | < 30 µg/mL
9 | 16 µg/mL | 2 µg/mL | 64 µg/mL | 64 µg/mL | CCCCCCCCCCCC[N+](C)(C)CCCCCOc1cc(OCCCCC[N+](C)(C)CCCCCCCCCCCC)cc(OCCCCC[N+](C)(C)CCCCCCCCCCCC)c1.[Br-].[Br-].[Br-] | 12 µg/mL | 0.75 | 
10 | 8 µg/mL | 4 µg/mL | 8 µg/mL | 32 µg/mL | CCCCCCCCCCCC[N+](C)(C)CCCCOc1cc(OCCCC[N+](C)(C)CCCCCCCCCCCC)cc(OCCCC[N+](C)(C)CCCCCCCCCCCC)c1.[Br-].[Br-].[Br-] | 11 µg/mL | 1.38 | 
11 | 1 µg/mL | 1 µg/mL | 2 µg/mL | 1 µg/mL | CCCCCCCC[N+](C)(C)CCCCOc1cccc(OCCCC[N+](C)(C)CCCCCCCC)c1OCCCC[N+](C)(C)CCCCCCCC.[Br-].[Br-].[Br-] | 847 µg/mL | 847 | 

Further lines, the compound ahead of its results:

Row | Compound | MIC (Staphylococcus aureus) | MIC (Enterococcus faecalis) | MIC (Escherichia coli) | MIC [1] | HC50 at 1 h [2] | selectivity ratio [3] | CC50 at 24 h [4]
12 | C[N+](C)(CCCCCOc1cc(OCCCCC[N+](C)(C)CCCc2ccccc2)cc(OCCCCC[N+](C)(C)CCCc2ccccc2)c1)CCCc1ccccc1.[Br-].[Br-].[Br-] | 1 µg/mL | 1 µg/mL | 8 µg/mL | 16 µg/mL | > 1280 µg/mL | > 1280 | 
13 | C[N+](C)(CCCCOc1cc(OCCCC[N+](C)(C)CCCOc2ccccc2)cc(OCCCC[N+](C)(C)CCCOc2ccccc2)c1)CCCOc1ccccc1.[Br-].[Br-].[Br-] | 4 µg/mL | 2 µg/mL | > 128 µg/mL | 64 µg/mL | > 1280 µg/mL | > 320 | 
14 | C[N+](C)(CCCCOc1cc(OCCCC[N+](C)(C)CCCCc2ccccc2)cc(OCCCC[N+](C)(C)CCCCc2ccccc2)c1)CCCCc1ccccc1.[Br-].[Br-].[Br-] | 2 µg/mL | 4 µg/mL | 64 µg/mL | 32 µg/mL | > 1280 µg/mL | > 640 | 
15 | C[N+](C)(CCCOc1cc(OCCC[N+](C)(C)CCCc2ccccc2)cc(OCCC[N+](C)(C)CCCc2ccccc2)c1)CCCc1ccccc1.[Br-].[Br-].[Br-] | 32 µg/mL | 32 µg/mL | > 128 µg/mL | > 128 µg/mL | > 1280 µg/mL | > 40 | 
16 | C[N+](C)(CCCCCOc1cc(OCCCCC[N+](C)(C)CCCOc2ccccc2)cc(OCCCCC[N+](C)(C)CCCOc2ccccc2)c1)CCCOc1ccccc1.[Br-].[Br-].[Br-] | 1 µg/mL | 1 µg/mL | 2 µg/mL | 2 µg/mL | > 1280 µg/mL | > 1280 | < 30 µg/mL
17 | CS(=O)(=O)c1ccc([C@@H](O)[C@@H](CF)NC(=O)C(Cl)Cl)cc1 [FLORFENICOL] |  |  |  |  |  |  | 121 µg/mL (≈ 339 µM)
18 | C[N+](C)(CCCOc1ccccc1)CCCOc1cc(OCCC[N+](C)(C)CCCOc2ccccc2)cc(OCCC[N+](C)(C)CCCOc2ccccc2)c1.[Br-].[Br-].[Br-] | 32 µg/mL | 64 µg/mL | > 128 µg/mL | > 128 µg/mL | > 1280 µg/mL | > 40 | 
19 | C[N+](C)(CCCCCOc1ccccc1)CCCOc1cc(OCCC[N+](C)(C)CCCCCOc2ccccc2)cc(OCCC[N+](C)(C)CCCCCOc2ccccc2)c1.[Br-].[Br-].[Br-] | 4 µg/mL | 8 µg/mL | 32 µg/mL | 32 µg/mL | > 1280 µg/mL | > 320 | 
20 | C[N+](C)(CCCCCOc1ccccc1)CCCCCOc1cc(OCCCCC[N+](C)(C)CCCCCOc2ccccc2)cc(OCCCCC[N+](C)(C)CCCCCOc2ccccc2)c1.[Br-].[Br-].[Br-] | 1 µg/mL | 2 µg/mL | 1 µg/mL | 2 µg/mL | > 1280 µg/mL | > 1280 | < 30 µg/mL
21 | CCCC[N+](C)(C)CCCCCOc1cc(OCCCCC[N+](C)(C)CCCC)cc(OCCCCC[N+](C)(C)CCCC)c1.[Br-].[Br-].[Br-] | 64 µg/mL | 128 µg/mL | 32 µg/mL | 128 µg/mL | > 1280 µg/mL | > 20 | 
22 | C[N+](C)(CCCCOc1ccccc1)CCCOc1cc(OCCC[N+](C)(C)CCCCOc2ccccc2)cc(OCCC[N+](C)(C)CCCCOc2ccccc2)c1.[Br-].[Br-].[Br-] | 32 µg/mL | 64 µg/mL | 128 µg/mL | 128 µg/mL | > 1280 µg/mL | > 40 | 
23 | CCCC[N+](C)(C)CCCCOc1cc(OCCCC[N+](C)(C)CCCC)cc(OCCCC[N+](C)(C)CCCC)c1.[Br-].[Br-].[Br-] | 128 µg/mL | 128 µg/mL | 128 µg/mL | 128 µg/mL | > 1280 µg/mL | > 10 | 
24 | C[N+](C)(CCCCCOc1cc(OCCCCC[N+](C)(C)CCCCc2ccccc2)cc(OCCCCC[N+](C)(C)CCCCc2ccccc2)c1)CCCCc1ccccc1.[Br-].[Br-].[Br-] | 1 µg/mL | 2 µg/mL | 2 µg/mL | 2 µg/mL | > 1280 µg/mL | > 1280 | < 30 µg/mL
25 | CCCCCCCCCCCC[N+](C)(C)CCOc1ccccc1 [DOMIPHEN] |  |  |  |  |  |  | 74.5 µg/mL
26 | C[N+](C)(CCCCCOc1ccccc1)CCCCOc1cc(OCCCC[N+](C)(C)CCCCCOc2ccccc2)cc(OCCCC[N+](C)(C)CCCCCOc2ccccc2)c1.[Br-].[Br-].[Br-] | 1 µg/mL | 2 µg/mL | 16 µg/mL | 16 µg/mL | > 1280 µg/mL | > 1280 | 
27 | C[N+](C)(CCCCc1ccccc1)CCCOc1cc(OCCC[N+](C)(C)CCCCc2ccccc2)cc(OCCC[N+](C)(C)CCCCc2ccccc2)c1.[Br-].[Br-].[Br-] | 8 µg/mL | 16 µg/mL | 128 µg/mL | 128 µg/mL | > 1280 µg/mL | > 160 | 
28 | C[C@@H](O)[C@H]1C(=O)N2C(C(=O)O)=C(S[C@@H]3CN[C@H](C(=O)N(C)C)C3)[C@H](C)[C@H]12 [MEROPENEM] | 0.5 µg/mL (≈ 1.3 µM) | 2 µg/mL (≈ 5.22 µM) | 1 µg/mL (≈ 2.61 µM) | 1 µg/mL (≈ 2.61 µM) | 1220 µg/mL | 2440 | 
29 | C=C[C@]1(C)C[C@@H](OC(=O)CSC(C)(C)CNC(=O)[C@H](N)C(C)C)[C@]2(C)[C@H](C)CC[C@]3(CCC(=O)[C@H]32)[C@@H](C)[C@@H]1O [VALNEMULIN] |  |  |  |  |  |  | 45.7 µg/mL (≈ 80.9 µM)
30 | C[N+](C)(CCCCOc1cc(OCCCC[N+](C)(C)CCCc2ccccc2)cc(OCCCC[N+](C)(C)CCCc2ccccc2)c1)CCCc1ccccc1.[Br-].[Br-].[Br-] | 8 µg/mL | 16 µg/mL | > 128 µg/mL | > 128 µg/mL | > 1280 µg/mL | > 160 | 
31 | C[N+](C)(CCCCCOc1cc(OCCCCC[N+](C)(C)CCCCOc2ccccc2)cc(OCCCCC[N+](C)(C)CCCCOc2ccccc2)c1)CCCCOc1ccccc1.[Br-].[Br-].[Br-] | 1 µg/mL | 2 µg/mL | 2 µg/mL | 4 µg/mL | > 1280 µg/mL | > 1280 | < 30 µg/mL
32 | C[N+](C)(CCCCOc1ccccc1)CCCCOc1cc(OCCCC[N+](C)(C)CCCCOc2ccccc2)cc(OCCCC[N+](C)(C)CCCCOc2ccccc2)c1.[Br-].[Br-].[Br-] | 2 µg/mL | 4 µg/mL | 64 µg/mL | 32 µg/mL | > 1280 µg/mL | > 640 | 
